From patent US6214839A, “Substituted 6-alkylphenanthridines” (Byk Gulden Lomberg Chemische Fabrik GmbH, priority 1997, dated 2001)

Test system: PDE 4
Experiment: Inhibition of PDE 4 activity
Assay type: biochemical
Conditions: inhibitory concentration as -log IC50 (mol/l), method of Bauer and Schwabe adapted to microtiter plates

CCOc1cc2c(cc1OC)C([C@H]1CC[C@H](C(=O)OC)CC1)=N[C@H]1CCCC[C@@H]21 (relative stereo) [Compound 1]
-log IC50: 7.47
